Target: T1, human cloned CHRM3 receptor (M3_CHO cells) (Homo sapiens, UniProt P20309)
T1 construct: expressed in transfected cells; host or cells: CHO-K1
Test: CHRM3 Ca++ Flux Assay (agonist mode, FDSS 7000EX)
Format: cell-based
Details: for Emax: Percent Activity measured to EC100 of Carbachol, read-out: M3 FDSS PA; for EC50: agonist mode, geometric mean if tested more than once, read-out: M3 FDSS EC50
Outline: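 Stable CHO-K1 lines (human M3 or M5), calcium-dye loaded ≥1 h, assayed in Ca/Mg-free HBSS + 20 mM HEPES + 2.5 mM probenecid. 11-pt dose response, triplicate, 3 min fluorescence read. 4-parameter regression; % activity vs carbachol EC100.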

T1 sequence (P20309 whole entry): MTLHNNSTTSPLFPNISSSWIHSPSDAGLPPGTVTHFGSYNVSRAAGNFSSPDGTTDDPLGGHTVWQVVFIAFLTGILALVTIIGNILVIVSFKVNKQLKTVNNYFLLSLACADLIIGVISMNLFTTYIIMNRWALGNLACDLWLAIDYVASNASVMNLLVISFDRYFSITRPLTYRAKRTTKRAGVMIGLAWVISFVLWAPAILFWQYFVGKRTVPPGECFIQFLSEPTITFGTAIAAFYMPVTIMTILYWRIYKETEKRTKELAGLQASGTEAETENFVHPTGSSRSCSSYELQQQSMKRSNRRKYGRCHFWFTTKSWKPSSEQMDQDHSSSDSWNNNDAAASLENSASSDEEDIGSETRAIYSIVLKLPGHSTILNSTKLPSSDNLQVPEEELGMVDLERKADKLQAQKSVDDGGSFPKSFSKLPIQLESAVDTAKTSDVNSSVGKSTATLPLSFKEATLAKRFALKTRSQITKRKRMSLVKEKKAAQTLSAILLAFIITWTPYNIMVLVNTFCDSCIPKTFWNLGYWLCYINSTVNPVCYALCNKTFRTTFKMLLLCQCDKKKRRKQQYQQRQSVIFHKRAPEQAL

SMILES | Emax | EC50
CC(C)Oc1cc(F)ccc1C1CCN([C@@H]2CCC3(C2)CN(C(=O)C2COC2)C3)CC1 [Example 6D, (R)-(6-(4-(4-fluoro-2-isopropoxyphenyl)piperidin-1-yl)-2-azaspiro[3.4]octan-2-yl)(oxetan-3-yl)methanone] | 0% | > 25 µM
O=C(N1CC2(CC[C@@H](N3CCC(c4ccccc4C4CCOCC4)CC3)C2)C1)C1(F)CC1 [Example 6E, (R)-(1-fluorocyclopropyl)(6-(4-(2-(tetrahydro-2H-pyran-4-yl)phenyl)piperidin-1-yl)-2-azaspiro[3.4]octan-2-yl)methanone] | 0% | > 25 µM
O=C(C1COC1)N1CC2(CC[C@@H](N3CCC(c4ccccc4OC4CC4)CC3)C2)C1 [Example 7A, (R)-(6-(4-(2-cyclopropoxyphenyl)piperidin-1-yl)-2-azaspiro[3.4]octan-2-yl)(oxetan-3-yl)methanone] | 9% | 9.78 µM
CC(C)(F)COc1ccccc1C1CCN([C@@H]2CCC3(C2)CN(C(=O)C2COC2)C3)CC1 [Example 7B, (R)-(6-(4-(2-(2-fluoro-2-methylpropoxy)phenyl)piperidin-1-yl)-2-azaspiro[3.4]octan-2-yl)(oxetan-3-yl)methanone] | 0% | > 25 µM
O=C(C1COC1)N1CC2(CC[C@@H](N3CCC(c4ccccc4Oc4nccs4)CC3)C2)C1 [Example 7C, (R)-oxetan-3-yl(6-(4-(2-(thiazol-2-yloxy)phenyl)piperidin-1-yl)-2-azaspiro[3.4]octan-2-yl)methanone] | 0% | > 25 µM
CC(C)(O)CCOc1ccccc1C1CCN([C@@H]2CCC3(C2)CN(C(=O)C2COC2)C3)CC1 [Example 7CC, (R)-(6-(4-(2-(3-hydroxy-3-methylbutoxy)phenyl)piperidin-1-yl)-2-azaspiro[3.4]octan-2-yl)(oxetan-3-yl)methanone] | 0% | > 25 µM
N#CCCOc1ccccc1C1CCN([C@@H]2CCC3(C2)CN(C(=O)C2COC2)C3)CC1 [Example 7D, (R)-3-(2-(1-(2-(oxetane-3-carbonyl)-2-azaspiro[3.4]octan-6-yl)piperidin-4-yl)phenoxy)propanenitrile] | 0% | > 25 µM
O=C(C1COC1)N1CC2(CC[C@@H](N3CCC(c4ccccc4OCCOC(F)(F)F)CC3)C2)C1 [Example 7DD, (R)-oxetan-3-yl(6-(4-(2-(2-(trifluoromethoxy)ethoxy)phenyl)piperidin-1-yl)-2-azaspiro[3.4]octan-2-yl)methanone] | 0% | > 25 µM
O=C(C1COC1)N1CC2(CC[C@@H](N3CCC(c4ccccc4OC[C@@H]4CCOC4)CC3)C2)C1 [Example 7E, oxetan-3-yl((R)-6-(4-(2-(((R)-tetrahydrofuran-3-yl)methoxy)phenyl)piperidin-1-yl)-2-azaspiro[3.4]octan-2-yl)methanone] | 0% | > 25 µM
O=C(C1COC1)N1CC2(CC[C@@H](N3CCC(c4ccccc4OCCOC4COC4)CC3)C2)C1 [Example 7EE, (R)-oxetan-3-yl(6-(4-(2-(2-(oxetan-3-yloxy)ethoxy)phenyl)piperidin-1-yl)-2-azaspiro[3.4]octan-2-yl)methanone] | 0% | > 25 µM
CC(C)COc1ccccc1C1CCN([C@@H]2CCC3(C2)CN(C(=O)C2COC2)C3)CC1 [Example 7F, (R)-(6-(4-(2-isobutoxyphenyl)piperidin-1-yl)-2-azaspiro[3.4]octan-2-yl)(oxetan-3-yl)methanone] | 0% | > 25 µM
O=C(C1COC1)N1CC2(CC[C@@H](N3CCC(c4ccccc4OC4CCCC4)CC3)C2)C1 [Example 7G, (R)-(6-(4-(2-(cyclopentyloxy)phenyl)piperidin-1-yl)-2-azaspiro[3.4]octan-2-yl)(oxetan-3-yl)methanone] | 0% | > 25 µM
O=C(C1COC1)N1CC2(CC[C@@H](N3CCC(c4ccccc4OCCC(F)(F)F)CC3)C2)C1 [Example 7GG, (R)-oxetan-3-yl(6-(4-(2-(3,3,3-trifluoropropoxy)phenyl)piperidin-1-yl)-2-azaspiro[3.4]octan-2-yl)methanone] | 0% | > 25 µM
O=C(C1COC1)N1CC2(CC[C@@H](N3CCC(c4ccccc4OC4CCC4)CC3)C2)C1 [Example 7H, (R)-(6-(4-(2-cyclobutoxyphenyl)piperidin-1-yl)-2-azaspiro[3.4]octan-2-yl)(oxetan-3-yl)methanone] | 0% | > 25 µM
COC(C)(C)COc1ccccc1C1CCN([C@@H]2CCC3(C2)CN(C(=O)C2COC2)C3)CC1 [Example 7HH, (R)-(6-(4-(2-(2-methoxy-2-methylpropoxy)phenyl)piperidin-1-yl)-2-azaspiro[3.4]octan-2-yl)(oxetan-3-yl)methanone] | 0% | > 25 µM
O=C(C1COC1)N1CC2(CC[C@@H](N3CCC(c4ccccc4OCC4CC4)CC3)C2)C1 [Example 7I, (R)-(6-(4-(2-(cyclopropylmethoxy)phenyl)piperidin-1-yl)-2-azaspiro[3.4]octan-2-yl)(oxetan-3-yl)methanone] | 0% | > 25 µM
O=C(C1COC1)N1CC2(CC[C@@H](N3CCC(c4ccccc4OCC4(C(F)(F)F)CC4)CC3)C2)C1 [Example 7II, (R)-oxetan-3-yl(6-(4-(2-((1-(trifluoromethyl)cyclopropyl)methoxy)phenyl)piperidin-1-yl)-2-azaspiro[3.4]octan-2-yl)methanone] | 0% | > 25 µM
CCOc1ccccc1C1CCN([C@@H]2CCC3(C2)CN(C(=O)C2COC2)C3)CC1 [Example 7J, (R)-(6-(4-(2-ethoxyphenyl)piperidin-1-yl)-2-azaspiro[3.4]octan-2-yl)(oxetan-3-yl)methanone] | 0% | 
O=C(C1COC1)N1CC2(CC[C@@H](N3CCC(c4ccccc4OCC(F)F)CC3)C2)C1 [Example 7JJ, (R)-(6-(4-(2-(2,2-difluoroethoxy)phenyl)piperidin-1-yl)-2-azaspiro[3.4]octan-2-yl)(oxetan-3-yl)methanone] | 0% | > 25 µM
CC(C)Oc1ccccc1C1CCN([C@@H]2CCC3(C2)CN(C(=O)C2COC2)C3)CC1 [Example 7K, (R)-(6-(4-(2-isopropoxyphenyl)piperidin-1-yl)-2-azaspiro[3.4]octan-2-yl)(oxetan-3-yl)methanone] | 0% | > 25 µM
O=C(C1COC1)N1CC2(CC[C@@H](N3CCC(c4ccccc4OCCC4COC4)CC3)C2)C1 [Example 7KK, (R)-oxetan-3-yl(6-(4-(2-(2-(oxetan-3-yl)ethoxy)phenyl)piperidin-1-yl)-2-azaspiro[3.4]octan-2-yl)methanone] | 0% | > 25 µM
CC(C)(O)COc1ccccc1C1CCN([C@@H]2CCC3(C2)CN(C(=O)C2COC2)C3)CC1 [Example 7L, (R)-(6-(4-(2-(2-hydroxy-2-methylpropoxy)phenyl)piperidin-1-yl)-2-azaspiro[3.4]octan-2-yl)(oxetan-3-yl)methanone] | 0% | > 25 µM
O=C(C1COC1)N1CC2(CC[C@@H](N3CCC(c4ccccc4OC(F)(F)F)CC3)C2)C1 [Example 12A, (R)-oxetan-3-yl(6-(4-(2-(trifluoromethoxy)phenyl)piperidin-1-yl)-2-azaspiro[3.4]octan-2-yl)methanone] | 0% | > 25 µM

From patent publication US12122761B2, “2-azaspiro[3.4]octane derivatives as M4 agonists” (NOVARTIS AG, priority 2019, dated 2024)
